The values that follow come from patent publication US12655150B2 (Cedilla Therapeutics, Inc., priority 2021, dated 2026).

Where a name gives a salt, the structure may show the parent alone.

The subject of this experiment is NCI-H226. Put plainly: 72H TEAD Proliferation Assay (Cell Titer Glo 2.0). Conditions: Homo sapiens, NCI-H226, 72 h, CTG 2.0, cell line not given (NCI-H226 responsive, NCI-H28 non-responsive). The class given is cell-based. How it is done:
72H TEAD Proliferation Assay.
The effect of TEAD inhibition on cell proliferation was assayed using Cell Titer Glo (CTG) 2.0 to measure response in mesothelioma cell lines NCI-H226 (ATCC, #CRL-5826) and NCI-H28 (ATCC, #CRL-5820).
The 72H TEAD Proliferation assay utilizes Cell Titer-Glo 2.0 (Promega, #G9243) to measure the proliferation of cells in the presence or absence of compound. Cell Titer-Glo 2.0 determines the amount of viable cells by quantifying ATP (an indication of metabolically active cells). It utilizes the conversion of Luciferin to Oxyluciferin and a luminescent signal with the use of ATP to report the quantity of viable cells in culture. Within cells that are continually growing, ATP is being synthesized to meet their metabolic demands, meanwhile the opposite is true for cells that are dying or slowing down their proliferation and either no longer using ATP or are using less, respectively. The NF2-deficient NCI-H226 has been genetically validated as a cell line that is sensitive to TEAD inhibition. The NF2-wild type NCI-H28 has been genetically validated as a cell line that is not sensitive to TEAD inhibition and grows independently of TEAD activity.
Compounds were screened against the responsive NCI-H226 cell line to assess the compounds' ability to inhibit TEAD and cell growth. Compounds were also screened against the non-responsive NCI-H28 cell line to ascertain whether the inhibition of cell growth was due to inhibition of the target TEAD or whether the inhibition was due to off-target cytotoxicity.
• 1) Assay ready plates (ARPs) were prepared by Echo acoustic liquid handler. […] After CTG addition, plates were placed on shaker at 800 RPM for 15 minutes at room temperature and kept in the dark. Luminescence was measured using EnVision multilabel plate reader with ultra-sensitive detection module. • 9) Data Analysis: First background luminescence (no CTG wells) was subtracted from luminescence reading of all wells, then TO luminescence was subtracted from T72 luminescence. To compare anti-proliferative effect of compounds, GI50 was obtained by fitting dose response curves with nonlinear regression curve fit.
Background: In ATP-based viability assays light output follows the ATP content of the culture.
Usually GI50 stands for the concentration that inhibits growth by half. A high value points to less potent growth inhibition. Turning to `CC(C)(C)c1ccc(-c2cnc3ccc(C#N)cc3n2)cc1` [I-159, 3-(4-(tert-butyl)phenyl)quinoxaline-6-carbonitrile], the GI50 is > 10 µM.

With `O=C(N[C@@H](CO)c1ccccc1)c1ccc2ccc(-c3ccc(C(F)(F)F)cc3)nc2c1` [I-428, (R)—N-(2-hydroxy-1-phenylethyl)-2-(4-(trifluoromethyl)phenyl)quinoline-7-carboxamide], the GI50 was ≤ 1 µM.

In turn, `CC(C)(C)c1ccc(-c2nc3cc(C(=O)NCCOCCOCCN)ccc3n3cccc23)cc1` [I-385, N-(2-(2-(2-Aminoethoxy)ethoxy)ethyl)-4-(4-(tert-butyl)phenyl)pyrrolo[1,2-a]quinoxaline-7-carboxamide] gave a 50% growth inhibitory concentration (GI50) of 5 to 10 µM.

`O=C(O)c1ccc2c(c1)nc(N1CC3C(C1)C3C(F)(F)F)c1cccn12` (centres unmarked) [I-128, 4-(6-(Trifluoromethyl)-3-azabicyclo[3.1.0]hexan-3-yl)pyrrolo[1,2-a]quinoxaline-7-carboxylic acid hydrochloride] came in with a GI50 of 1 to 5 µM.

`Cn1cnc(-c2cc(-c3ccc(C(F)(F)F)cc3)nc3cc(C(=O)O)ccc23)c1` [I-388, 4-(1-methyl-1H-imidazol-4-yl)-2-(4-(trifluoromethyl)phenyl)quinoline-7-carboxylic acid] came in with a GI50 of 1 to 5 µM.

`N#Cc1cc(C(F)(F)F)ccc1-c1nc2cc(C(=O)O)ccc2n2cccc12` [I-54, 4-(2-Cyano-4-(trifluoromethyl)phenyl)pyrrolo[1,2-a]quinoxaline-7-carboxylic acid] yielded a GI50 of 5 to 10 µM.

The compound `N#Cc1cc(-c2ccc(C(F)(F)F)cc2)nc2cc(C(=O)O)ccc12` [I-401, 4-cyano-2-(4-(trifluoromethyl)phenyl)quinoline-7-carboxylic acid] yielded a GI50 of 5 to 10 µM.

As to `CC[C@H](CO)NC(=O)c1ccc2c(OC)cc(-c3ccc(C(F)(F)F)cc3C)nc2c1` [I-336, (R)—N-(1-hydroxybutan-2-yl)-4-methoxy-2-(2-methyl-4-(trifluoromethyl)phenyl)quinoline-7-carboxamide], the GI50 is ≤ 1 µM.

`CC[C@H](CO)NC(=O)c1ccc2c(OC)cc(-c3c(Cl)cc(C(F)(F)F)cc3Cl)nc2c1` [I-398, (R)-2-(2,6-dichloro-4-(trifluoromethyl)phenyl)-N-(1-hydroxybutan-2-yl)-4-methoxyquinoline-7-carboxamide] came in with a GI50 of 1 to 5 µM.

As to `CC(C)(C)c1ccc(-c2nc3cc(C(=O)O)ccc3n3cc(F)cc23)cc1` [I-108, 4-(4-(tert-Butyl)phenyl)-2-fluoropyrrolo[1,2-a]quinoxaline-7-carboxylic acid], the GI50 fell in the range of 1 to 5 µM.

For `CC(C)(C)c1ccc(-c2nc3cc(C(=O)O)ccc3n3ncnc23)cc1` [I-287, 4-(4-(tert-butyl)phenyl)-[1,2,4]triazolo[1,5-a]quinoxaline-7-carboxylic acid], the GI50 lay in the range of 1 to 5 µM.

The compound `COc1cc(-c2ccc(C(F)(F)F)cc2)nc2cc(-c3nnc(C)[nH]3)ccc12` [I-413, 4-methoxy-7-(5-methyl-4H-1,2,4-triazol-3-yl)-2-(4-(trifluoromethyl)phenyl)quinolone] registered a GI50 of 5 to 10 µM.

Regarding `COc1cc(-c2ccc(C(F)(F)F)cc2)nc2cc(NC(=O)[C@@H](CO)c3ccccc3)ccc12` [I-376, (R)-3-Hydroxy-N-(4-methoxy-2-(4-(trifluoromethyl)phenyl)quinolin-7-yl)-2-phenylpropanamide], the GI50 is 1 to 5 µM.

Regarding `C=CC(=O)Nc1ccc2c(OC)cc(-c3ccc(C(C)(C)C)cc3)nc2c1` [I-384, N-(2-(4-(Tert-butyl)phenyl)-4-methoxyquinolin-7-yl)acrylamide], the GI50 was ≤ 1 µM.

For the compound `C=CC(=O)NCc1cn2ccnc2c(Nc2cccc(C(F)(F)F)c2)n1` [I-169, N-((8-((3-(trifluoromethyl)phenyl)amino)imidazo[1,2-a]pyrazin-6-yl)methyl) acrylamide], the GI50 is ≤ 1 µM.

The compound `COc1cc(-c2ccc(C(F)(F)F)cc2)nc2cc(-c3ccccn3)ccc12` [I-418, 4-Methoxy-7-(pyridin-2-yl)-2-(4-(trifluoromethyl)phenyl)quinoline] registered a 50% growth inhibitory concentration (GI50) of 5 to 10 µM.

In turn, `O=C(O)c1ccc2c(c1)nc(N1CCC3(CC1)CC(F)(F)C3)c1cccn12` [I-32, 4-(2,2-Difluoro-7-azaspiro [3.5]nonan-7-yl) pyrrolo[1,2-a] quinoxaline-7-carboxylic acid] showed a GI50 of 1 to 5 µM.

As for `Cc1cc(-c2ccc(C(F)(F)F)cc2)nc2cc(C(=O)NC(C)CO)ccc12` (centres unmarked) [I-260, N-(1-hydroxypropan-2-yl)-4-methyl-2-(4-(trifluoromethyl)phenyl)quinoline-7-carboxamide], the GI50 was ≤ 1 µM.

Regarding `C=CC(=O)NCc1cc(-c2ccc(C(F)(F)F)cc2)nn2ccnc12` [I-290, N-((6-(4-(trifluoromethyl)phenyl)imidazo[1,2-b]pyridazin-8-yl)methyl)acrylamide], the GI50 was ≤ 1 µM.

For `CC(C)(C)N1CCN(c2nc3cc(C(=O)O)ccc3n3cccc23)CC1` [I-20, 4-(4-(tert-Butyl)piperazin-1-yl)pyrrolo[1,2-a]quinoxaline-7-carboxylic acid], the GI50 is > 10 µM.

`O=C(O)c1ccc2c(N3CCCCC3)cc(-c3ccc(C(F)(F)F)cc3)nc2c1` [I-391, 4-(piperidin-1-yl)-2-(4-(trifluoromethyl)phenyl)quinoline-7-carboxylic acid] registered a GI50 of 1 to 5 µM.

For the compound `O=C(O)c1ccc2c(c1)nc(NC1CCC(C(F)(F)F)CC1)c1cccn12` (centres unmarked) [I-18, 4-((4-(Trifluoromethyl)cyclohexyl)amino)pyrrolo[1,2-a]quinoxaline-7-carboxylic acid], the GI50 fell in the range of 1 to 5 µM.

In turn, `C=CC(=O)NCc1cn2ccnc2c(-c2ccc(C(F)(F)F)cn2)n1` [I-313, N-((8-(5-(trifluoromethyl)pyridin-2-yl)imidazo[1,2-a]pyrazin-6-yl)methyl)acrylamide] showed a GI50 of 1 to 5 µM.

Consider `CC(C)(C)c1ccc(-c2nc(C(=O)O)cn3ccnc23)cc1` [I-147, 8-(4-(tert-Butyl)phenyl)imidazo[1,2-a]pyrazine-6-carboxylic acid], for which the GI50 is > 10 µM.

As to `COc1ccc(-c2nc3cc(C(=O)O)ccc3n3cccc23)cc1` [I-46, 4-(4-Methoxyphenyl)pyrrolo[1,2-a]quinoxaline-7-carboxylic acid], the GI50 is > 10 µM.

As for `C=CC(=O)NCC(=C)c1cn2ccnc2c(-c2ccc(C(F)(F)F)cc2)n1` [I-250, N-(2-(8-(4-(trifluoromethyl)phenyl)imidazo[1,2-a]pyrazin-6-yl)allyl)acrylamide], the GI50 was ≤ 1 µM.

In turn, `COc1cc(-c2ccc(C(F)(F)F)cc2)nc2cc(C(=O)NCC(O)C(F)(F)F)ccc12` (centres unmarked) [I-382, 4-methoxy-N-(3,3,3-trifluoro-2-hydroxypropyl)-2-(4-(trifluoromethyl)phenyl)quinoline-7-carboxamide] showed a 50% growth inhibitory concentration (GI50) of 1 to 5 µM.

Take `CC(C)(C)c1ccc(-c2nc3cc(NC(=O)c4ccccn4)ccc3n3cccc23)cc1` [I-207, N-(4-(4-(tert-butyl)phenyl)pyrrolo[1,2-a]quinoxalin-7-yl)picolinamide]: the GI50 lay in the range of 5 to 10 µM.

For `COc1cc(-c2ccc(C(F)(F)F)cc2)nc2cc(C(=O)N[C@H](C)CO)ccc12` [I-324, (R)—N-(1-hydroxypropan-2-yl)-4-methoxy-2-(4-(trifluoromethyl)phenyl)quinoline-7-carboxamide], the GI50 was ≤ 1 µM.
